From PubChem BioAssay AID1963840 (Molecular Pharmacology Branch, DTP, NCI, 2024)
pIC50: −log10 of the molar value.

System: 695427-040-R-J1-PDC complex spheroid viability
Assay: Anticancer human tumor 695427-040-R-J1-PDC patient-derived colon adenocarcinoma cell line growth inhibition [POLQ]
Details: for pIC50: curve of first compound; for viability, T/C: stronger effect = lower value
In short: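 Complex spheroid viability model combining PDC tumour cells with endothelial (HUVEC) and MSC stromal cells. Novobiocin, ART-558 or RP6685 were tested singly and in combination with standard and investigational anticancer drugs. Each was titrated in half-log steps from near clinical Cmax, or from 10 microM where Cmax was unknown.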

[1] = second compound 0.0316 µM, first compound 0.00316 µM
[2] = second compound 0.0316 µM, first compound 0.01 µM
[3] = second compound 0.0316 µM, first compound 0.0316 µM
[4] = second compound 0.0316 µM, first compound 0.1 µM
[5] = second compound 0.0316 µM, first compound 0.316 µM
[6] = second compound 0.0316 µM, first compound 1 µM
[7] = second compound 0.1 µM, first compound 0.00316 µM
[8] = second compound 0.1 µM, first compound 0.01 µM
[9] = second compound 0.1 µM, first compound 0.0316 µM
[10] = second compound 0.1 µM, first compound 0.1 µM
[11] = second compound 0.1 µM, first compound 0.316 µM
[12] = second compound 0.1 µM, first compound 1 µM
[13] = second compound 0.316 µM, first compound 0.00316 µM
[14] = second compound 0.316 µM, first compound 0.01 µM
[15] = second compound 0.316 µM, first compound 0.0316 µM
[16] = second compound 0.316 µM, first compound 0.1 µM
[17] = second compound 0.316 µM, first compound 0.316 µM
[18] = second compound 0.316 µM, first compound 1 µM
[19] = second compound 1 µM, first compound 0.00316 µM
[20] = second compound 1 µM, first compound 0.01 µM
[21] = second compound 1 µM, first compound 0.0316 µM
[22] = second compound 1 µM, first compound 0.1 µM
[23] = second compound 1 µM, first compound 0.316 µM
[24] = second compound 1 µM, first compound 1 µM
[25] = second compound 3.16 µM, first compound 0.00316 µM
[26] = second compound 3.16 µM, first compound 0.01 µM
[27] = second compound 3.16 µM, first compound 0.0316 µM
[28] = second compound 3.16 µM, first compound 0.1 µM
[29] = second compound 3.16 µM, first compound 0.316 µM
[30] = second compound 3.16 µM, first compound 1 µM
[31] = second compound 10 µM, first compound 0.00316 µM
[32] = second compound 10 µM, first compound 0.01 µM
[33] = second compound 10 µM, first compound 0.0316 µM
[34] = second compound 10 µM, first compound 0.1 µM
[35] = second compound 10 µM, first compound 0.316 µM
[36] = second compound 10 µM, first compound 1 µM
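Also: spheroids exposed to compounds for seven days.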
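For viability, T/C in this document: 100% = DMSO vehicle control viability.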

C=CCn1c(=O)c2cnc(Nc3ccc(N4CCN(C)CC4)cc3)nc2n1-c1cccc(C(C)(C)O)n1 + Cc1cccc(N(C)C(=O)C2C(O)CCN2c2nc(C)cc(C(F)(F)F)c2C#N)c1
pIC50 (second compound 0.0316 µM): < 6.00 | pIC50 (second compound 0.1 µM): < 6.00 | pIC50 (second compound 0.316 µM): < 6.00 | pIC50 (second compound 1 µM): < 6.00 | pIC50 (second compound 3.16 µM): < 6.00 | pIC50 (second compound 10 µM): < 6.00 | viability, T/C [1]: 100% | viability, T/C [2]: 99.4% | viability, T/C [3]: 101% | viability, T/C [4]: 92.6% | viability, T/C [5]: 94.3% | viability, T/C [6]: 83.6% | viability, T/C [7]: 115% | viability, T/C [8]: 108% | viability, T/C [9]: 93.2% | viability, T/C [10]: 103% | viability, T/C [11]: 93.4% | viability, T/C [12]: 69.5% | viability, T/C [13]: 105% | viability, T/C [14]: 121% | viability, T/C [15]: 95.5% | viability, T/C [16]: 92.5% | viability, T/C [17]: 107% | viability, T/C [18]: 90.1% | viability, T/C [19]: 109% | viability, T/C [20]: 95.9% | viability, T/C [21]: 102% | viability, T/C [22]: 100% | viability, T/C [23]: 98.1% | viability, T/C [24]: 64.2% | viability, T/C [25]: 91.8% | viability, T/C [26]: 90.8% | viability, T/C [27]: 88.9% | viability, T/C [28]: 89.3% | viability, T/C [29]: 91.4% | viability, T/C [30]: 69.5% | viability, T/C [31]: 93.9% | viability, T/C [32]: 89.3% | viability, T/C [33]: 87.7% | viability, T/C [34]: 92.7% | viability, T/C [35]: 91.4% | viability, T/C [36]: 67.9%

CC[C@@]1(O)C(=O)OCc2c1cc1n(c2=O)Cc2cc3c(CN(C)C)c(O)ccc3nc2-1 + Cc1cccc(N(C)C(=O)C2C(O)CCN2c2nc(C)cc(C(F)(F)F)c2C#N)c1
pIC50 (second compound 0.0316 µM): < 7.00 | pIC50 (second compound 0.1 µM): < 7.00 | pIC50 (second compound 0.316 µM): < 7.00 | pIC50 (second compound 1 µM): < 7.00 | pIC50 (second compound 3.16 µM): < 7.00 | pIC50 (second compound 10 µM): < 7.00 | viability, T/C (second compound 0.0316 µM, first compound 0.000316 µM): 110% | viability, T/C (second compound 0.0316 µM, first compound 0.001 µM): 98.7% | viability, T/C [1]: 104% | viability, T/C [2]: 94.5% | viability, T/C [3]: 99.4% | viability, T/C [4]: 88.5% | viability, T/C (second compound 0.1 µM, first compound 0.000316 µM): 109% | viability, T/C (second compound 0.1 µM, first compound 0.001 µM): 98.5% | viability, T/C [7]: 94.7% | viability, T/C [8]: 104% | viability, T/C [9]: 97.5% | viability, T/C [10]: 88.7% | viability, T/C (second compound 0.316 µM, first compound 0.000316 µM): 99.1% | viability, T/C (second compound 0.316 µM, first compound 0.001 µM): 95.9% | viability, T/C [13]: 98.2% | viability, T/C [14]: 91.5% | viability, T/C [15]: 101% | viability, T/C [16]: 87.3% | viability, T/C (second compound 1 µM, first compound 0.000316 µM): 98.2% | viability, T/C (second compound 1 µM, first compound 0.001 µM): 93.4% | viability, T/C [19]: 97.5% | viability, T/C [20]: 97.1% | viability, T/C [21]: 93.7% | viability, T/C [22]: 86.9% | viability, T/C (second compound 3.16 µM, first compound 0.000316 µM): 92.4% | viability, T/C (second compound 3.16 µM, first compound 0.001 µM): 98.5% | viability, T/C [25]: 91.7% | viability, T/C [26]: 98.4% | viability, T/C [27]: 101% | viability, T/C [28]: 81.7% | viability, T/C (second compound 10 µM, first compound 0.000316 µM): 85.6% | viability, T/C (second compound 10 µM, first compound 0.001 µM): 89.4% | viability, T/C [31]: 104% | viability, T/C [32]: 90% | viability, T/C [33]: 87.5% | viability, T/C [34]: 77.7%

CCc1c2c(nc3ccc(O)cc13)-c1cc3c(c(=O)n1C2)COC(=O)[C@]3(O)CC + Cc1cccc(N(C)C(=O)C2C(O)CCN2c2nc(C)cc(C(F)(F)F)c2C#N)c1
pIC50 (second compound 0.0316 µM): < 6.00 | pIC50 (second compound 0.1 µM): < 6.00 | pIC50 (second compound 0.316 µM): < 6.00 | pIC50 (second compound 1 µM): < 6.00 | pIC50 (second compound 3.16 µM): 6.04 | pIC50 (second compound 10 µM): 6.24 | viability, T/C [1]: 101% | viability, T/C [2]: 90.1% | viability, T/C [3]: 83% | viability, T/C [4]: 81.7% | viability, T/C [5]: 66.1% | viability, T/C [6]: 51.4% | viability, T/C [7]: 99.6% | viability, T/C [8]: 98.9% | viability, T/C [9]: 80.5% | viability, T/C [10]: 76.3% | viability, T/C [11]: 69.3% | viability, T/C [12]: 52.8% | viability, T/C [13]: 93.2% | viability, T/C [14]: 92.8% | viability, T/C [15]: 90.7% | viability, T/C [16]: 75.8% | viability, T/C [17]: 67.4% | viability, T/C [18]: 49.7% | viability, T/C [19]: 96.2% | viability, T/C [20]: 94.5% | viability, T/C [21]: 85.2% | viability, T/C [22]: 77.3% | viability, T/C [23]: 67.9% | viability, T/C [24]: 51.2% | viability, T/C [25]: 89.4% | viability, T/C [26]: 84.9% | viability, T/C [27]: 82.2% | viability, T/C [28]: 82.8% | viability, T/C [29]: 66.3% | viability, T/C [30]: 48.6% | viability, T/C [31]: 84.2% | viability, T/C [32]: 80.7% | viability, T/C [33]: 78.9% | viability, T/C [34]: 70.5% | viability, T/C [35]: 58.5% | viability, T/C [36]: 41.7%

Nc1ccn(C2OC(CO)C(O)C2(F)F)c(=O)n1 (stereo not drawn) + Cc1cccc(N(C)C(=O)C2C(O)CCN2c2nc(C)cc(C(F)(F)F)c2C#N)c1
pIC50 (second compound 0.0316 µM): < 5.00 | pIC50 (second compound 0.1 µM): < 5.00 | pIC50 (second compound 0.316 µM): < 5.00 | pIC50 (second compound 1 µM): < 5.00 | pIC50 (second compound 3.16 µM): < 5.00 | pIC50 (second compound 10 µM): < 5.00 | viability, T/C [3]: 83% | viability, T/C [4]: 79.4% | viability, T/C [5]: 76.4% | viability, T/C [6]: 72.6% | viability, T/C (second compound 0.0316 µM, first compound 3.16 µM): 68% | viability, T/C (second compound 0.0316 µM, first compound 10 µM): 52.4% | viability, T/C [9]: 93.8% | viability, T/C [10]: 87.9% | viability, T/C [11]: 77.4% | viability, T/C [12]: 70.8% | viability, T/C (second compound 0.1 µM, first compound 3.16 µM): 63.5% | viability, T/C (second compound 0.1 µM, first compound 10 µM): 54.2% | viability, T/C [15]: 103% | viability, T/C [16]: 87.8% | viability, T/C [17]: 71.2% | viability, T/C [18]: 72.8% | viability, T/C (second compound 0.316 µM, first compound 3.16 µM): 66.3% | viability, T/C (second compound 0.316 µM, first compound 10 µM): 55.8% | viability, T/C [21]: 90.9% | viability, T/C [22]: 82.7% | viability, T/C [23]: 71% | viability, T/C [24]: 70.8% | viability, T/C (second compound 1 µM, first compound 3.16 µM): 66.5% | viability, T/C (second compound 1 µM, first compound 10 µM): 55.1% | viability, T/C [27]: 91.8% | viability, T/C [28]: 80.8% | viability, T/C [29]: 75.5% | viability, T/C [30]: 68.3% | viability, T/C (second compound 3.16 µM, first compound 3.16 µM): 70.2% | viability, T/C (second compound 3.16 µM, first compound 10 µM): 57.6% | viability, T/C [33]: 84.9% | viability, T/C [34]: 86.4% | viability, T/C [35]: 75.6% | viability, T/C [36]: 72.5% | viability, T/C (second compound 10 µM, first compound 3.16 µM): 69.5% | viability, T/C (second compound 10 µM, first compound 10 µM): 58.5%
